According to patent US20110136819A1, “6-THIOXOPYRIDAZINE DERIVATIVES” (MERCK PATENT GESELLSCHAFT MIT BESCHRÄNKTER HAFTUNG, priority 2007, published 2011):
Counter-ions that a name gives are not always drawn.

Target: T1, Met kinase (Homo sapiens, UniProt P08581)
T1 construct: 6His (N); purchased Upstate 14-526; host or cells: Sf21 insect cells (S. frugiperda), baculovirus
Experiment: Met kinase inhibition (enzyme assay), flashplate method
Format: biochemical
Conditions: 33P-ATP, substrate pAGLT, 3 hrs at room temperature
Source text: According to the manufacturer's data (Met, active, upstate, catalogue no. 14-526), Met kinase is expressed for the purposes of protein production in insect cells (Sf21; S. frugiperda) and subsequent affinity-chromatographic purification as “N-terminal 6His-tagged” recombinant human protein in a baculovirus expression vector.
The test plates used are 96-well Flashplate® microtitre plates from Perkin Elmer (Cat. No. SMP200). The components of the kinase reaction described below are pipetted into the assay plate. The Met kinase and the substrate poly Ala-Glu-Lys-Tyr, (pAGLT, 6:2:5:1), are incubated for 3 hrs at room temperature with radioactively labelled ^33P-ATP in the presence and absence of test substances in a total volume of 100 μl. The reaction is terminated using 150 μl of a 60 mM EDTA solution. After incubation for a further 30 min at room temperature, the supernatants are filtered off with suction, and the wells are washed three times with 200 μl of 0.9% NaCl solution each time. The measurement of the bound radioactivity is carried out by means of a scintillation measuring instrument (Topcount NXT, Perkin-Elmer).
The full value used is the inhibitor-free kinase reaction. This should be approximately in the range 6000-9000 cpm. The pharmacological zero value used is staurosporin in a final concentration of 0.1 mM. The inhibitory values (IC50) are determined using the RS1_MTS program.
30 μl of assay buffer 10 μl of substance to be tested in assay buffer with 10% of DMSO 10 μl of ATP (final concentration 1 μM cold, 0.35 μCi of ^33P-ATP) 50 μl of Met kinase/substrate mixture in assay buffer; • (10 ng of enzyme/well, 50 ng of pAGLT/well)
Assay Buffer: • 50 mM HEPES • 3 mM magnesium chloride • 3 μM sodium orthovanadate • 3 mM manganese(II) chloride • 1 mM dithiothreitol (DTT) • pH=7.5 (to be set using sodium hydroxide)
Stop Solution: • 60 mM Titriplex III (EDTA) • ^33P-ATP: Perkin-Elmer; • Met kinase: Upstate, Cat. No. 14-526, Stock 1 μg/10 μl; spec. activity 954 U/mg; • Poly-Ala-Glu-Lys-Tyr, 6:2:5:1: Sigma Cat. No. P1152

T1 sequence (P08581 25-1390): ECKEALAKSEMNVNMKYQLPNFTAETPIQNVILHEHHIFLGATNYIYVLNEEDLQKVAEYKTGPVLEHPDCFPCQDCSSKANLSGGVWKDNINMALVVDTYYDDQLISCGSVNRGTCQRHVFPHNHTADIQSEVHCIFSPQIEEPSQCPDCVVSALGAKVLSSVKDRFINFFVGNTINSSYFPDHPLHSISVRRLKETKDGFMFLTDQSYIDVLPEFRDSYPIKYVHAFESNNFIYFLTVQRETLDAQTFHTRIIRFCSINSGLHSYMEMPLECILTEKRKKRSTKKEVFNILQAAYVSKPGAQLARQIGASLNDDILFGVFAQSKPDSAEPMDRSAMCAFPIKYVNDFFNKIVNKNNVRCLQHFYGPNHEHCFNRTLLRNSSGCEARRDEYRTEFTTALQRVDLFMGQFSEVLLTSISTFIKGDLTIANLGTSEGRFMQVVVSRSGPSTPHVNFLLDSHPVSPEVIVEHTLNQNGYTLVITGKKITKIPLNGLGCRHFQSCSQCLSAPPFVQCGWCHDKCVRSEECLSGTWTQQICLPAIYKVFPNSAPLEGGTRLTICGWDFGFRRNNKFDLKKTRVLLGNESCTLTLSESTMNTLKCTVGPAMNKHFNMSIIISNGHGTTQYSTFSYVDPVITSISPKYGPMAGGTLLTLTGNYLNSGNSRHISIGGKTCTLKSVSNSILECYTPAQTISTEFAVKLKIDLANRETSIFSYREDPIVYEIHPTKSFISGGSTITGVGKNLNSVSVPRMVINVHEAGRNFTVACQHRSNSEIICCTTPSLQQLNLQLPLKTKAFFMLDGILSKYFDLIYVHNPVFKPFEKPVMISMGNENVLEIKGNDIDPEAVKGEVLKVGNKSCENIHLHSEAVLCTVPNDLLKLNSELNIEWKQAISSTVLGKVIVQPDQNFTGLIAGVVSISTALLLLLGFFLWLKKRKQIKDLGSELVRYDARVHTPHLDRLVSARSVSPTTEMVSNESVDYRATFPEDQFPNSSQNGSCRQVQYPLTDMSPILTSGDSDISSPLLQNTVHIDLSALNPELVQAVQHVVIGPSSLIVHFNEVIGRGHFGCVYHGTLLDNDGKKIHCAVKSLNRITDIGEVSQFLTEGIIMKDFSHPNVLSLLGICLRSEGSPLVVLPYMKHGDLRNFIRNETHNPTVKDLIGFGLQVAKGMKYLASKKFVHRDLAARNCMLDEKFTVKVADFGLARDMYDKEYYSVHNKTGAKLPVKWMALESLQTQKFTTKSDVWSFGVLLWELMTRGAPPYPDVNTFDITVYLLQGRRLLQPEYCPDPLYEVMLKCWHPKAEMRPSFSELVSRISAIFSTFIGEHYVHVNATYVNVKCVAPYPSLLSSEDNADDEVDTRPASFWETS

| IC50 | Compound |
| --- | --- |
| 10 to 1000 nM | Cc1cnc(-c2cccc(Cn3nc(-c4cccc(Cl)c4)ccc3=S)c2)s1 [Compound A4, 6-(3-chlorophenyl)-2-[3-(5-methylthiazol-2-yl)benzyl]-2H-pyridazine-3-thione] |
| 10 to 1000 nM | Cc1cnc(-c2cccc(Cn3nc(-c4cc(F)cc(F)c4)ccc3=S)c2)s1 [Compound A3, 6-(3,5-difluorophenyl)-2-[3-(5-methylthiazol-2-yl)-benzyl]-2H-pyridazine-3-thione] |
| 10 to 1000 nM | CN1CCN(CCCOC(=O)Nc2cccc(Cn3nc(-c4cc(F)c(F)c(F)c4)ccc3=S)c2)CC1 [Compound A2, 3-(4-methylpiperazin-1-yl)propyl{3-[6-thioxo-3-(3,4,5-trifluorophenyl)-6H-pyridazin-1-ylmethyl]phenyl}carbamate formate] |

| Compound | IC50 |
| --- | --- |
| CN1CCN(CCCOC(=O)Nc2cccc(Cn3nc(-c4cc(F)cc(F)c4)ccc3=S)c2)CC1 [Compound A1, 3-(4-methylpiperazin-1-yl)propyl{3-[6-thioxo-3-(3,5-difluorophenyl)-6H-pyridazin-1-ylmethyl]phenyl}carbamate] | 10 to 1000 nM |
